Reference: US20030180396A1, “Method of effecting phosphorylation in eucaryotic cells using thiamine triphosphate” (INSTITUT PASTEUR, priority 1999, published 2003)
Entries after “also recorded” stand apart in the source; their conditions may differ. Where two headings read alike, the source gives them in different places.

Tests used:
[1] = test system: TTP-dependent kinase(s) (TTP-kinase, TTP-43K-kinase); assay: TTP-dependent phosphorylation of 43K rapsyn by endogenous kinase(s) in nAChR-rich postsynaptic membranes; format: biochemical, Torpedo marmorata; settings: for IC50: FIG. 3A, preincubation with cold triphosphate, read-out: IC50, inhibition of TTP-dependent phosphorylation of 43K rapsyn; for Kd: read-out: KD (apparent dissociation constant) of 43K rapsyn phosphorylation
Experimental: (§1) nAChR-rich postsynaptic membranes (nAChR-membranes) were prepared from electric organs excised from freshly killed Torpedo marmorata (T.m.) (Biologie Marine, Arcachon) (3, 16).
(§2) [γ-^32P]-TTP (^32P-TTP) was synthesized (27). nAChR-membranes were phosphorylated with (7-8000 Ci/mol) ^32P-TTP or ^32P-ATP in 50 mM Tris-HCl pH 7.5, 5-15 mM MgCl2, 0.08% CHAPS, inhibitors of proteases at 4°-20° C. for 60-90 minutes. […] Coomassie blue staining was performed when necessary. Where specified, nAChR-membranes were treated with 5-20 mM diethylpyrocarbonate (DEPC.) (28) in 50 mM Na phosphate buffer pH 6.0 and 7.4 (20 min, 16° C.), prior to incubation with ^32P-TTP.
A purified extract containing the kinase responsible for the TTP dependent phosphorylation of histidine residues on rapsyn, is preincubated with increasing concentration of products inhibiting the enzymatic activity of said kinase (FIG. 3A).

[2] = test system: endogenous protein kinase A (PKA); assay: ATP-dependent phosphorylation of 43K rapsyn in nAChR-rich postsynaptic membranes; format: biochemical, Torpedo marmorata
Experimental: as §1, §2

[3] = biological target: T1, Nucleoside diphosphate kinase (NDPK) (Dictyostelium discoideum, UniProt P22887); assay: Phosphorylation of NDPK with 32P-ATP or 32P-TTP as phosphodonor; format: biochemical; settings: data not shown
T1 sequence (P22887 1-155): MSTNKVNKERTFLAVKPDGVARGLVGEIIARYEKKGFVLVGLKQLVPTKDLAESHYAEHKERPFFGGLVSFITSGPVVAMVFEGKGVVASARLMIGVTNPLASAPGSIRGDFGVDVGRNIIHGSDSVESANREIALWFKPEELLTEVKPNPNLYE
Experimental: NDPK is a highly conserved enzyme which plays a key role in growth and metastasis control (47). As the enzyme autophosphorylates histidine and presents a broad specificity, phosphorylation was assayed with TTP.

[4] = test system: mouse brain membranes; settings: FIG. 8
[5] = Chemical stability of the phosphate links of phosphorylated 43K rapsyn (TCA / KOH treatment); format: physicochemical, Torpedo marmorata; settings: for P-aa stability (base): PVDF blot + base; for P-aa stability (acid): SDS-PAGE gel + acid
Experimental: For acid treatment, SDS-PAGE gels containing ^32P-ATP- or ^32P-TTP-treated membranes were cut and incubated with Tris buffer or 16% TCA at 90° C. (29, 30), washed, and analyzed. Equivalent amounts of 43K rapsyn were ensured by Coomassie blue staining. For base treatment, ^32P-labeled membranes were resolved by SDS-PAGE, electroblotted on polyvinylidene difluoride membrane (PVDF). Blots were dried at 55° C. to minimize protein loss, wet in methanol, washed with H2O, cut and incubated in water or 1N KOH at 46° C. and analyzed.

## Nc1ncnc2c1nc(Sc1ccc(Cl)cc1)n2[C@@H]1O[C@@H]2COP(=O)([O-])O[C@H]2[C@H]1O.[Na+] [8-CPT-cAMP, Adenosine 3′-5′-cyclic monophosphate, 8-(4-Chlorophenylthio)-sodium salt]
[1]
  effect on TTP-dependent phosphorylation of 43K rapsyn / TTP-kinase activity (in words): did not drastically alter

## Nc1ncnc2c1ncn2[C@@H]1O[C@H](COP(=O)(O)OP(=O)(O)OP(=O)(O)O)[C@@H](O)[C@H]1O [ATP, adenosine triphosphate]
[2]
  effect on 32P-ATP-dependent 43K rapsyn phosphorylation (in words): specifically inhibited
[1]
  effect on TTP-dependent phosphorylation of 43K rapsyn / TTP-kinase activity (in words): specifically inhibited
  IC50: ~500 µM

## Nc1ccn([C@@H]2O[C@H](COP(=O)(O)OP(=O)(O)OP(=O)(O)O)[C@@H](O)[C@H]2O)c(=O)n1 [CTP]
[1]
  effect on TTP-dependent phosphorylation of 43K rapsyn / TTP-kinase activity (in words): inhibits poorly

## CCOC(=O)OC(=O)OCC [DEPC, diethylpyrocarbonate]
[1]; membranes pretreated with 5-20 mM DEPC, versus 100±19% in mock membranes
  43K rapsyn phosphorylation, % 32P: 20±2%

## O[C@@H](CS)[C@@H](O)CS [DTT]
[1]
  effect on TTP-dependent phosphorylation of 43K rapsyn / TTP-kinase activity (in words): partially inhibited
[1]; 10 mM
  % inhibition of TTP-kinase activity: 30-40%

## CN(C)CCCn1cc(C2=C(c3c[nH]c4ccccc34)C(=O)NC2=O)c2ccccc21 [GFX, bisindolylmaleimide I]
[1]
  effect on TTP-dependent phosphorylation of 43K rapsyn / TTP-kinase activity (in words): did not drastically alter

## Nc1nc2c(ncn2[C@@H]2O[C@H](COP(=O)(O)OP(=O)(O)OP(=O)(O)O)[C@@H](O)[C@H]2O)c(=O)[nH]1 [GTP]
[1]
  IC50: ~1000 µM

## CC1CNCCN1S(=O)(=O)c1cccc2cnccc12 (centres unmarked) [H7]
[1]
  effect on TTP-dependent phosphorylation of 43K rapsyn / TTP-kinase activity (in words): did not drastically alter

## O=S(=O)(NCCNC/C=C/c1ccc(Br)cc1)c1cccc2cnccc12 [H89]
[1]
  effect on TTP-dependent phosphorylation of 43K rapsyn / TTP-kinase activity (in words): did not drastically alter

## CN([C@@H](Cc1ccc(OS(=O)(=O)c2cccc3cnccc23)cc1)C(=O)N1CCN(c2ccccc2)CC1)S(=O)(=O)c1cccc2cnccc12 [KN62]
[1]
  effect on TTP-dependent phosphorylation of 43K rapsyn / TTP-kinase activity (in words): did not drastically alter

## CCCCCCOC(=O)[C@]1(O)C[C@@H]2O[C@@]1(C)n1c3ccccc3c3c4c(c5c6ccccc6n2c5c31)C(=O)NC4 [KT5720]
[1]
  effect on TTP-dependent phosphorylation of 43K rapsyn / TTP-kinase activity (in words): did not drastically alter

## O=S(=O)(c1cccc2c(I)cccc12)N1CCCNCC1 [ML7]
[1]
  effect on TTP-dependent phosphorylation of 43K rapsyn / TTP-kinase activity (in words): did not drastically alter

## [Mg+2] [Mg^2+]
[1]
  effect on TTP-dependent phosphorylation of 43K rapsyn / TTP-kinase activity (in words): enhanced

## CCCCCCCCCCCCCC(=O)O[C@@H]1[C@@H](C)[C@@]2(O)[C@@H](C=C(CO)C[C@]3(O)C(=O)C(C)=C[C@@H]23)[C@@H]2C(C)(C)[C@]12OC(C)=O [TPA, phorbol-12-myristate-13-acetate]
[1]
  effect on TTP-dependent phosphorylation of 43K rapsyn / TTP-kinase activity (in words): did not drastically alter

## [Zn+2] [Zn^2+]
[1]
  effect on TTP-dependent phosphorylation of 43K rapsyn / TTP-kinase activity (in words): inhibited; also recorded: prevented
[1]; 0.5-3 mM Zn2+, 8 μM 32P-TTP, Mg2+ independent
  % inhibition of TTP-dependent phosphorylation of 43K rapsyn: ~70%

## Nc1ncnc2c1ncn2[C@@H]1O[C@H](COP(=O)(O)OP(=O)(O)O[32P](=O)(O)O)[C@@H](O)[C@H]1O [^32P-ATP, [γ-^32P]-ATP, reference compound]
[3]
  phosphorylation of NDPK by the phosphodonor: strongly phosphorylated
[2]; not yet saturated
  concentration saturating 43K rapsyn phosphorylation: > 200 µM

## Cc1ncc(C[n+]2csc(CCOP(=O)(O)OP(=O)(O)O[32P](=O)([O-])O)c2C)c(N)n1 [^32P-TTP, [γ-^32P]-TTP]
[3]
  phosphorylation of NDPK by the phosphodonor: not
[1]; FIG. 3C
  concentration saturating 43K rapsyn phosphorylation: 25 to 50 µM

## COc1ccc(C[C@H]2NC[C@H](O)[C@H]2OC(C)=O)cc1 [anisomycin]
[1]
  effect on TTP-dependent phosphorylation of 43K rapsyn / TTP-kinase activity (in words): did not drastically alter

## Nc1nc2c(ncn2[C@@H]2O[C@@H]3COP(=O)(O)O[C@H]3[C@H]2O)c(=O)[nH]1 [cGMP]
[1]
  effect on TTP-dependent phosphorylation of 43K rapsyn / TTP-kinase activity (in words): did not drastically alter

## Clc1ccc(C(c2ccc(Cl)cc2)n2cc[n+](CC(OCc3ccc(Cl)cc3Cl)c3ccc(Cl)cc3Cl)c2)cc1 (centres unmarked) [calmidazolium]
[1]
  effect on TTP-dependent phosphorylation of 43K rapsyn / TTP-kinase activity (in words): did not drastically alter

## O=c1c(-c2ccc(O)cc2)coc2cc(O)cc(O)c12 [genisterin, genistein]
[1]
  effect on TTP-dependent phosphorylation of 43K rapsyn / TTP-kinase activity (in words): did not drastically alter

## CN[C@@H]1C[C@H]2O[C@@](C)([C@@H]1OC)n1c3ccccc3c3c4c(c5c6ccccc6n2c5c31)C(=O)NC4 [staurosporine]
[1]
  effect on TTP-dependent phosphorylation of 43K rapsyn / TTP-kinase activity (in words): did not drastically alter

## TNF-α
[1]
  effect on TTP-dependent phosphorylation of 43K rapsyn / TTP-kinase activity (in words): did not drastically alter

## calphostin
[1]
  effect on TTP-dependent phosphorylation of 43K rapsyn / TTP-kinase activity (in words): did not drastically alter

## thiamine triphosphate [TTP]
[2]
  effect on 32P-ATP-dependent 43K rapsyn phosphorylation (in words): specifically inhibited
[1]
  effect on TTP-dependent phosphorylation of 43K rapsyn / TTP-kinase activity (in words): specifically inhibited
  IC50: ~40 µM
[1]; FIG. 3C, dose dependent and saturable
  Kd: 5 to 10 µM
[1]; one membrane preparation
  Kd: ~25 µM
[4]
  proteins phosphorylated in mouse brain membranes: phosphorylated very few

B1: 43K-rapsyn/ATP: 43K rapsyn phosphorylated with ^32P-ATP (protein, UniProt Q13702 2-412, looked up)
43 kDa receptor-associated …: GQDQTKQQIEKGLQLYQSNQTEKALQVWTKVLEKSSDLMGRFRVLGCLVTAHSEMGRYKEMLKFAVVQIDTARELEDADFLLESYLNLARSNEKLCEFHKTISYCKTCLGLPGTRAGAQLGGQVSLSMGNAFLGLSVFQKALESFEKALRYAHNNDDAMLECRVCCSLGSFYAQVKDYEKALFFPCKAAELVNNYGKGWSLKYRAMSQYHMAVAYRLLGRLGSAMECCEESMKIALQHGDRPLQALCLLCFADIHRSRGDLETAFPRYDSAMSIMTEIGNRLGQVQALLGVAKCWVARKALDKALDAIERAQDLAEEVGNKLSQLKLHCLSESIYRSKGLQRELRAHVVRFHECVEETELYCGLCGESIGEKNSRLQALPCSHIFHLRCLQNNGTRSCPNCRRSSMKPGFV
modifications: 32P-phosphorylated (ATP)
notes: 43K rapsyn phosphorylated with ^32P-ATP
[5]
  P-aa stability (base): base-labile
  P-aa stability (acid): acid-stable
[5]; listed as ATP-^32P-43K rapsyn
  P-aa stability (base): alkaline labile
  P-aa stability (acid): acid stable
[5]; PVDF blot, 1 N KOH 46° C. 40 min, relative to control
  % 32P remaining: 41 ± 1%
[5]; PVDF blot, 1 N KOH 46° C. 120 min, relative to control
  % 32P remaining: 18 ± 2%
[5]; PVDF blot, 1 N KOH 46° C. 120 min, relative to control, listed as ATP-^32P-43K rapsyn
  % 32P remaining: 18±2%
[5]; SDS-PAGE gel, 16% TCA, 90° C. 5 min, relative to control
  % 32P remaining: 79 ± 5%
[5]; SDS-PAGE gel, 16% TCA, 90° C. 5 min, relative to control, listed as ATP-^32P-43K rapsyn
  % 32P remaining: 79±5%
[5]; SDS-PAGE gel, 16% TCA, 90° C. 10 min, relative to control
  % 32P remaining: 49 ± 9%
[5]; SDS-PAGE gel, 16% TCA, 90° C. 10 min, relative to control, listed as ATP-^32P-43K rapsyn
  % 32P remaining: 49±9%
[5]; putative Paa listed in both acid- and base-stability analysis (ref. 45)
  Paa/pH-stability: P-Ser and/or P-Thr

B2: 43K-rapsyn/TTP: 43K rapsyn phosphorylated with ^32P-TTP (protein, UniProt Q13702 2-412, looked up)
43 kDa receptor-associated …: GQDQTKQQIEKGLQLYQSNQTEKALQVWTKVLEKSSDLMGRFRVLGCLVTAHSEMGRYKEMLKFAVVQIDTARELEDADFLLESYLNLARSNEKLCEFHKTISYCKTCLGLPGTRAGAQLGGQVSLSMGNAFLGLSVFQKALESFEKALRYAHNNDDAMLECRVCCSLGSFYAQVKDYEKALFFPCKAAELVNNYGKGWSLKYRAMSQYHMAVAYRLLGRLGSAMECCEESMKIALQHGDRPLQALCLLCFADIHRSRGDLETAFPRYDSAMSIMTEIGNRLGQVQALLGVAKCWVARKALDKALDAIERAQDLAEEVGNKLSQLKLHCLSESIYRSKGLQRELRAHVVRFHECVEETELYCGLCGESIGEKNSRLQALPCSHIFHLRCLQNNGTRSCPNCRRSSMKPGFV
modifications: 32P-phosphorylated (TTP)
notes: 43K rapsyn phosphorylated with ^32P-TTP
[5]
  Paa/pH-stability: P-His and/or P-Lys
[5]; 40 min
  % 32P remaining: 96 ± 3%
